These results are taken from US12084411B2, “Hinokitiol analogues, methods of preparing and pharmaceutical compositions thereof” (The Board of Trustees of the University of Illinois, priority 2018, dated 2024).

Entries after “also recorded” stand apart in the source; their conditions may differ.

Data set [1] is described as follows: Iron efflux from liposomes using ferrozine. Format: biochemical. The conditions noted are these: for transport of ferrous and ferric iron across model liposomal membranes: 5 μM small molecule; for iron (III) efflux from POPC liposomes: 30 mM FeCl3 inside. Here is the method:
Iron (III) efflux from POPC liposomes was determined similar to previously reported (64). POPC liposomes were prepared as similarly reported (65) using 30 mM FeCl3, 62.5 mM citrate at pH=7.0 in 25 mM Mes/Tris buffer. External iron was removed by size exclusion chromatography using Sephadex G-50 and eluting with external buffer. External buffer consisted of 62.5 mM ascorbate at pH=7.0 in 25 mM Mes/Tris buffer. The liposomes were diluted to 1 mM phosphorus in this buffer. Ferrozine (Sigma 160601) was added (100X stock in external buffer) to a final concentration of 500 μM. Liposomal suspension was then transferred to a 96-well plate, and either DMSO or 5 μM hinokitiol, C2deOHino, deferiprone, or PIH (40X stock solution in DMSO) were added to initiate the experiment. The OD562 was determined every minute over the course of 2 hours using a plate-reader with continuous shaking at 30° C. to detect the relative amounts of external ferrozine-iron chelate at the indicated times. After 2 hours, liposomes were lysed with Triton-X to give 100% iron efflux.
Iron (II) efflux was performed as described above, however, the internal buffer alternatively consisted of 30 mM FeSO4, 62.5 mM ascorbate at pH=7.0 in 25 mM Mes/Tris buffer and Triton-X lysis was performed after 1 hour.
The rates of iron efflux with increasing concentrations of intraliposomal iron and/or hinokitiol were determined as described above using the indicated concentration of iron and hinokitiol. For the varying concentrations of iron, hinokitiol (10 μM) was added to the POPC liposomes, and the change in absorbance at 562 nm was determined over 2 hours. For the varying concentrations of hinokitiol, 30 mM intraliposomal iron was used as described above. The concentration of iron outside of liposomes was determined using the extinction coefficient for ferrozine-iron (27,900 M^−1 cm^−1) (66). This was used to determine the amount of iron released from liposomes at the indicated times using the total volume for each experiment. Rates of iron efflux were determined after one hour of hinokitiol treatment.

In data set [2] the test system is wild-type yeast (WT). Kind of data set: Toxicity to wild type yeast (structure-activity study, FIG. 25). Here is the method:
Growth rescue in yeast was performed similar to previously reported (20) using 10 μM hinokitiol in low iron SD liquid media containing 10 μM FeCl3 in a 96-well plate unless otherwise noted. Wild type and fet3Δftr1Δ controls treated with vehicle (DMSO) were performed under identical conditions using the same low iron SD media containing 10 μM FeCl3 in the absence of hinokitiol. Yeast were grown overnight in YPD media and diluted at an OD600 of 0.1 in SD media, diluted 10-fold, and incubated at 30° C. with continuous shaking (200 rpm). The OD600 was obtained 24-48 hours after inoculation unless otherwise noted.
Small molecule dose-response (FIG. 1F) with hinokitiol and C2-deoxy hinokitiol (C2deOHino, see synthesis below) was determined by addition of the small molecule (40X stock solution in DMSO) to give the indicated final concentrations.

The subject of data set [3] is J774 macrophages. Kind of data set: Temporal imaging of cytosolic iron levels in J774 macrophages. Format: cell-based, mouse. The note with it: for calcein green fluorescence after reversal of the gradient: external FeCl3 100 μM at t=12 min; for calcein green fluorescence after small molecule addition: iron-loaded cells, 100 μM small molecule at t=5 min. Here is the method:
To assess for the capacity for hinokitiol to reversibly and autonomously transport iron across the plasma membrane through the creation of artificial iron gradients, J774 macrophages were grown in Ibidi dishes (Ibidi NC0723624) to ˜80% confluency before incubation with J774 Complete media containing 5 mM ascorbic acid and 200 μM FeSO4. The cells were incubated for 1.5 hours, media was aspirated, and the cells were rinsed with PBS. The cells were then incubated with calcein green-AM (1 μM) in DMEM for 20 minutes at 37° C. The media was aspirated and cells were rinsed (×2) with PBS before DMEM (pH=7.4 in 10 mM HEPES) and 1 mM probenecid (Sigma P8761) was added. Calcein green fluorescence was then imaged on a LSM880 microscope at 37° C. with 5% CO2 at the indicated time points for 30 minutes. Hinokitiol (100 μM final concentration), C2deOHino (100 μM final concentration), or DMSO (all from 1000X stocks in 50 μL DMEM) were added at 5 minutes, and a solution of FeCl3 (100 μM final concentration, in 50 μL DMEM) was added at 12 minutes. Fluorescence in each image at each time point was analyzed by ImageJ analysis then normalized to the fluorescence at t=0 for each image using >100 cells per experiment.

For data set [4], the system named is DMT1-deficient MEL cells. Kind of data set: Live cell fluorescence imaging and flow cytometry of compartmentalized iron in MEL cells. Format: cell-based, mouse. The note with it: for endosomal oxyburst green, cytosolic calcein green and mitochondrial RPA fluorescence: 1 μM. As for the experimental part: To visualize cytosolic and mitochondrial iron, confocal imaging of calcein green and RPA fluorescence was performed, respectively. MEL cells were induced for differentiation as described above. […] The cells were incubated for an additional 2 hours, and then were centrifuged and rinsed with PBS. […] The cells were then incubated at 37° C. for 15 minutes. […] The cells were then imaged within 10 minutes on a LSM710 microscope. Relative calcein green and RPA fluorescence per cell was determined by ImageJ analysis using >100 cells per experiment. […] MEL cells were induced for differentiation as described above. […] The cells were incubated for an additional 2 hours, and then were centrifuged and rinsed with PBS. The cells were then re-suspended in DMEM-HEPES buffer, and H2O2 (50 mM final concentration) was added. The cells were incubated at room temperature, and the oxyburst green fluorescence was then determined 10 minutes after addition of H2O2 on a LSM710 microscope. Relative oxyburst green fluorescence per cell was determined by ImageJ analysis using >100 cells per experiment. […] Median fluorescence was then normalized to shDMT1 for each dye. […] Median fluorescence was then normalized to shDMT1 for each dye.

The nature of data set [5]: Determination of small molecule iron binding (UV-Vis). The note with it: pH 7.0. As for the experimental part: Small molecule iron (III) binding was determined by UV-Vis spectroscopy of small molecules (30 μM) before and after addition of FeCl3 (10 μM) or iron (III) citrate (10 μM, Sigma F3388) in 10 mM MES/Tris buffer at pH=7.0. Iron (II) binding was determined by UV-Vis spectroscopy of small molecules (30 μM) and FeCl2 (10 μM) in a 25 mM MES/Tris buffer at pH=7.0 containing 62.5 mM sodium ascorbate.

In the case of `CC(C)c1cccc(=O)cc1` [C2deOHino, C2-deoxy hinokitiol], in data set [1], the “transport of ferrous and ferric iron across model liposomal membranes” value was “minimal transport”; the “iron (III) efflux from POPC liposomes” value was “no efflux up to 100 μM”. For the same compound, the “toxicity to wild type yeast” value in data set [2] was “no biological activity”. In data set [3], the “calcein green fluorescence after reversal of the gradient” value is “no effect” and the “calcein green fluorescence after small molecule addition” value is listed as “no effect”. In addition, the “endosomal oxyburst green, cytosolic calcein green and mitochondrial RPA fluorescence” value in data set [4] was “no effect”. In data set [5], the iron binding entry was “does not bind iron; also recorded: cannot bind or transport iron”.
With `CC(C)c1cccc(=O)c(O)c1` [hinokitiol], in data set [1], the “transport of ferrous and ferric iron across model liposomal membranes” value is “autonomously transports both ferrous and ferric iron”; the “iron (III) efflux from POPC liposomes” value is “dose- and temperature-dependently promoted iron (III) efflux”. Also, the “toxicity to wild type yeast” value in data set [2] was “kills wild-type yeast (WT) only at high concentrations”. In addition, in data set [3], the “calcein green fluorescence after reversal of the gradient” value was “quenching of calcein green fluorescence was observed” and the “calcein green fluorescence after small molecule addition” value is on record as “rapidly increased calcein green fluorescence”. Further, in data set [4], the “endosomal oxyburst green, cytosolic calcein green and mitochondrial RPA fluorescence” value is “decreases endosomal oxyburst green fluorescence and quenches calcein green and RPA fluorescence”. In data set [4] (hinokitiol 1 μM), the “decrease of oxyburst green fluorescence” value is 2.1 fold. Further, the iron binding result in data set [5] is reported as “binds iron (III)”.
